These results are taken from patent publication US11274268B2, “Detergent compositions for removing heavy metals and formaldehyde” (FNG RESEARCH CO., LTD., priority 2017, dated 2022).

Data set [1] in a line: Formaldehyde removing ability test (GC). Conditions: 2.0% formaldehyde solution, 3 molar equivalents, room temperature.
The test system of another data set is human skin. The data set can be described thus: Skin irritation test of active ingredient (patch method, CTFA guidelines). The data set is classed as in vivo. Conditions: for Test result (number of subject) (+) / Test result (number of subject) (−) / Test result (number of subject) (++) / Test result (number of subject) (±): 20 subjects, 24 hours patch; for Test result (number of subject) (+): apparent reddening; for Test result (number of subject) (−): no erythema or symptoms; for Test result (number of subject) (++): reddened and swollen; for Test result (number of subject) (±): slightly reddish; for Degree of irritation: Equation 1. How it is done:
A total of 20 people (10 men and 10 women in their 20s and 30s) were tested for skin irritation using the patch method according to the guidelines of CTFA (The Cosmetic, Toiletry & Fragrance Association, Inc. Washington, D.C.).
A filter paper disk was placed in an 8 mm diameter, 10 panels of pin chamber.
After 24 hours, the pin chamber was removed, and skin conditions were visually observed. The degree and grade for skin irritation were calculated according to the following Equation 1, and the results are shown in Table 3 below.
[Criteria for Skin Irritation]
(−): No erythema or particularly no symptoms; (±): slightly reddish than the periphery; (+): Apparent reddening than periphery; (++): More reddened and swollen than periphery.
[Grade for Skin Irritation]
Degree of irritation 0-0.1: Grade I (unstimulated);
Degree of irritation 0.11-0.3: Grade II (weakly stimulated);
Degree of irritation 0.31-0.5: Grade III (moderately stimulated);
Degree of irritation 0.51 or more: Grade IV (strongly stimulated)

On to `NCCNCCNCCN` [Trientine, Triethylenetetramine, reference compound], for which, in data set [1] (30 min), the “Area (formaldehyde, GC)” value stood at 0.168 mAU * min. Moreover, in data set [1] (180 min), the “Area (formaldehyde, GC)” value came to 0 mAU * min. Also, in data set [1] (Initial), the “Area (formaldehyde, GC)” value is listed as 0.305 mAU * min. For the same compound, in the data set on human skin (content 0.1%), the Grade entry was “I (Degree of irritation 0-0.1: Grade I (unstimulated))”, the “Test result (number of subject) (+)” value was 0, the “Test result (number of subject) (−)” value was 20 and the “Test result (number of subject) (++)” value was 0. For the same compound, in the data set on human skin (content 0.1%), the “Test result (number of subject) (±)” value is listed as 0 and the Degree of irritation turned out to be 0. Further, in the data set on human skin (content 0.5%), the Grade entry is on record as “I (Degree of irritation 0-0.1: Grade I (unstimulated))”, the “Test result (number of subject) (+)” value stood at 0, the “Test result (number of subject) (−)” value was determined as 19 and the “Test result (number of subject) (++)” value is 0. In the data set with human skin (content 0.5%), the “Test result (number of subject) (±)” value was determined as 1 and the Degree of irritation came out at 0.05. Further, in the data set on human skin (content 1.0%), the Grade entry is “II (Degree of irritation 0.11-0.3: Grade II (weakly stimulated))”, the “Test result (number of subject) (+)” value is recorded as 0, the “Test result (number of subject) (−)” value was found to be 17 and the “Test result (number of subject) (++)” value was 0. In the data set with human skin (content 1.0%), the “Test result (number of subject) (±)” value is on record as 3 and the Degree of irritation came to 0.15.
